“And” between values parts separate entries of the source, which are not always exact repeats. Equal entries are not always repeated.
Tests used:
[1] = molecular target: T1, apoE4 (Homo sapiens, UniProt P02649, C130R); test: Emulsion binding assay for domain interaction, apoE4; conditions: for E4 + cpd n = 3, % bound / E4 + cpd n = 3, % free / E4 control, % bound / E4 control, % free: follow-up assay; for E4 control, % bound / E4 control, % free: second E4 control; for E4 + cpd, % bound / E4 + cpd, % free: initial assay, 2.5 μl of compound (10 mM stock) in 250 μl, 37° C. 2 hours
T1 construct: made in house
T1 sequence (P02649 19-317 C130R): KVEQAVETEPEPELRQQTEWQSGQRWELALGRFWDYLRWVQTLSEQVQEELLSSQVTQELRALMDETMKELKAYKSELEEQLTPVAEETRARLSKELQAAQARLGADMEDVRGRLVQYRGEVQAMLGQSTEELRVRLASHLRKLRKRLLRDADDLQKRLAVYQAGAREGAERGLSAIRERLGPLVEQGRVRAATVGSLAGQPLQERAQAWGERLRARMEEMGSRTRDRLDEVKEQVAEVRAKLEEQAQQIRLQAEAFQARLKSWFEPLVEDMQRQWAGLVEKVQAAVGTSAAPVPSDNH
Description: (§1) Preparation of emulsion particles. Triolein (160 mg) and L-alpha-Phosphatidylcholine (40 mg) are combined and dried under nitrogen. After the addition of 8 mls of buffer (10 mM Tris, 100 mM KCl, 1 mM EDTA, pH 8.0), the mixture is sonicated in a water bath to obtain a heterogeneous mix of emulsion particles. The particles are harvested by ultracentrifugation (TLA 100.2 rotor, 30,000 rpm for 30 minutes) and the subsequent lipid cake is removed by tube slicing and resuspended in 100 μt 20 mM Phosphate Buffer (PB). Triolein and phospholipid content are measured and total emulsion particle concentration is determined.
(§2) Radiolabelling Freshly denatured and renatured Apolipoprotein E3 and E4 are radiolabelled using Bolton-Hunter Reagent [^125I] (ICN). Specific Activity is determined using Lowry method and Gamma 8000 counter.
(§3) Binding Affinity Assay. […] In glass tubes, 25 μg of protein (with iodinated tracer) was reduced with 1% β-mercaptoethanol. Two hundred and fifty μg of emulsion particles and 2.5 μl of compound (10 mM stock) were added and the final mixture was brought up to 250 μl with 20 mM phosphate buffer (PB). The reaction mixture was then incubated in a 37° C. water bath for 2 hours before being transferred to 1.5 ml ultracentrifuge tubes. Finally, 50 μl of 60% sucrose was mixed with the sample and 400 μl 20 mM PB was carefully layered on top. Using a TLA 100.2 rotor, the tube was spun at 30,000 rpm for 30 minutes and subsequently cut to separate the floating emulsion particle layer from the free protein at the bottom of the tube. These fractions were then combined with the respective half of the actual tube and counted using a Gamma-8000. […] Protein-only assays yielded 94.5-96.6% of protein accumulated in the bottom portion of the tube. In emulsion particle-only assays, 94% of emulsion particles accumulated in the top portion of the tube.
(§4) Preparation of Emulsion Particles and VLDL Binding Affinity Assay. VLDL-like emulsion particles were prepared using triolein (160 mg) and L-alpha-phosphatidylcholine (40 mg), as described. Dong and Weisgraber (1996) supra; and Dong et al. (1994) J. Biol. Chem. 269:22358-22365.

[2] = test system: apoE3; test: Aβ production assay, B103-APP cells incubated with apoE3; format: cell-based, rat; conditions: FIG. 22
Description: (§5) Aβ production assay. Stable neuroblastoma B103 cell lines transfected with a wildtype hAPP cDNA construct (B 103-APP) were selected by growing them in Dulbecco's modified Eagle's medium (DMEM) containing 10% fetal calf serum (FBS) and 400 μg/ml G418. A cell line expressing APP at similar levels in mouse brains has been identified by RNase protection assay (RPA) and was used in the studies described below. To determine Aβ production, B103-APP cells were incubated with serum-free minimal essential medium (MEM) containing N2 supplements with or without apoE isoforms for 24 h at 37° C. After incubation, 50 μl of medium was collected and assayed for Aβ levels with an ELISA method. The cells were lysed, and cellular proteins were determined by the Lowry method. AP production was normalized to cellular protein.
(§6) Cell Culture. Rat neuroblastoma B103 cells stably expressing human wildtype APP (hAPP695wt) (Xu et al. ((1999) Proc. Natl. Acad. Sci. USA 96:7547-7552; Esposito, et al. (2004) J. Neurochem. 91:1260-1274) were generated in Dr. Lennart Mucke's laboratory at the Gladstone Institute of Neurological Disease and maintained in Dulbecco's modified Eagle's medium (DMEM) (GIBCO, Grand Island, N.Y.) containing 400 μg/ml G418, 10% fetal bovine serum, and 5% horse serum at 37° C. Twenty-four hours after plating into 48-well plates (1×10^5 cells per well), cells were washed twice with serum-free DMEM and cultured for another 24 h in DMEM containing 1% N-2 supplement (GIBCO) to induce differentiation. The cells were treated with either β-VLDL (25 μg/ml cholesterol), recombinant human apoE isoform-enriched β-VLDL (7.5 μg/ml apoE and 25 μg/ml cholesterol), or recombinant human apoE (7.5 μg/ml apoE) in fresh DMEM containing 1% N-2 supplement for an additional 24 h. In some experiments, RAP (25 nM or 1 μM) was added to the cells 1 h before apoE treatment.
(§7) Aβ Assay. Aβ secreted into the medium was detected with a sandwich enzyme-linked immunosorbent assay (ELISA), using mAb 266 as a capturing antibody and 3D6 as a detecting antibody, as described. Johnson-Wood et al. ((1997) Proc. Natl. Acad. Sci. USA 94:1550-1555). Aβ was quantified from a standard curve (Aβ42; Bachem, Torrance, Calif.) and normalized by total cellular protein.

[3] = test system: apoE4 enhancement of Aβ production; test: Aβ production assay, B103-APP cells incubated with apoE4; format: cell-based, rat; conditions: FIG. 22
Description: as §5, §6, §7

[4] = molecular target: T2, apoE3 (Homo sapiens, UniProt P02649); test: Emulsion binding assay, apoE3; conditions: follow-up assay
T2 construct: made in house
T2 sequence (P02649 19-317): as the sequence (P02649 19-317 C130R) above, with R112C counted along it
Description: as §1, §2, §3, §4

[5] = test system: B103-APP cells; test: APP processing and Aβ production, B103-APP cells; format: cell-based, rat
Description: as §5, §6
In some experiments, cells were treated with lovastatin, as described but with a minor modification. Fassbender et al. (2001) Proc. Natl. Acad. Sci. USA 98:5856-5861. Briefly, cells were maintained in differentiation medium containing 4 μM lovastatin and 0.25 mM mevalonate for 24 h. After treatment for 5 min with 5 mM methyl-β-cyclodextrin, which depletes cell membrane cholesterol (Bodovitz and Klein (1996) J. Biol. Chem. 271:4436-4440; Kojro et al. (2001) Proc. Natl. Acad. Sci. USA 98:5815-5820), the cells were incubated in fresh differentiation medium containing lovastatin and mevalonate for 24 h. The conditioned medium was collected, and cellular cholesterol extracted with chloroform/methanol (Huang et al. (1994) Proc. Natl. Acad. Sci. USA 91:1834-1838) and quantitated with a kit from Abbott Laboratories (Abbott Park, Ill.).
Detection of sAPPα. Media conditioned for 24 hours were normalized by protein content and subjected to SDS/PAGE. Proteins were then transferred onto nitrocellulose membranes. The sAPPα was detected by mAb 6E10 and visualized with an enhanced chemiluminescence system (Pierce, Rockford, Ill.).
as §7

[6] = test system: Neuro-2a cells; test: Aβ-induced apoptosis (DNA fragmentation assay); format: cell-based, mouse
Description: DNA Fragmentation Assay—DNA fragmentation of apoptotic cells was determined with Cell Death Detection ELISA kits (Roche, Indianapolis, Ind.).
FIG. 38. […] Control cells were not treated with Aβ1-42. Apoptotic cell death was measured with a DNA fragmentation assay. Values are the mean±S.D. of three separate experiments.
FIGS. 39A and 39B. […] Lysosomal leakage was quantitated by assaying cytosolic 0-hexosaminidase activity. […] Conditioned media were prepared as described above. Apoptosis was quantitated by measuring DNA fragmentation.

[7] = test system: Neuro-2a cells; test: Aβ-induced lysosomal leakage (cytosolic β-hexosaminidase); format: cell-based, mouse; conditions: 20 μM Aβ1-42
Description: The cytosolic fraction was obtained by ultracentrifugation, and the cytosolic β-hexosaminidase activity was measured.
Quantitation of the lysosomal enzyme β-hexosaminidase activity in the cytosol indicates lysosomal leakage. […] After incubation the cells were washed and cytosolic fractions were isolated as described in Materials and Methods. The enzymatic activity of β-hexosaminidase was assayed in 20 μg of cytosolic protein for each sample.
Lysosomal leakage was quantitated by assaying cytosolic 0-hexosaminidase activity. […] Conditioned media were prepared as described above. Apoptosis was quantitated by measuring DNA fragmentation.

[8] = β-VLDL 25 μg/ml cholesterol or lovastatin 4 μM

E4 + cpd n = 3, % bound [1]	E4 + cpd n = 3, % free [1]	E4 control, % bound [1]	E4 control, % free [1]	E4 + cpd, % bound [1]	E4 + cpd, % free [1]	E3 + compound, % bound [4]	E3 + compound, % free [4]	Compound	further results
57%	43%	49%	51%	22% and 19%	78% and 81%	14%	86%	5-chloro-2-(4-chloro-2-(3,4-dichloro phenylureido) [GIND32]	effect on apoE3 (Aβ production) [2]: no effect; apoE4 enhancement of Aβ production [3]: abolished completely
57%	43%	26%	74%	11% and 10%	89% and 90%	20%	80%	O.O=C([O-])c1ccccc1-c1c2cc(I)c(=O)c(I)c-2oc2c(I)c([O-])c(I)cc12.[Na+].[Na+] [Erythrosin B]	
57%	43%	43%	57%	25% and 23%	75% and 77%	26%	74%	O=C(N[C@H](Cc1ccc(OCc2ccccc2)cc1)C(=O)O)OCc1ccccc1 [Z-D-Tyr (BZL)-OH]	
								CC[C@H](C)C(=O)O[C@H]1C[C@@H](C)C=C2C=C[C@H](C)[C@H](CC[C@@H]3C[C@@H](O)CC(=O)O3)[C@H]21 [lovastatin, reference compound]	cellular cholesterol content [5, 8]: lowered; production of Aβ [5, 8]: decreased; secretion of sAPPα [5, 8]: increased
								Aβ1-42: Amyloid β1-42, aggregated before use	DNA fragmentation ([6]; apoE3-transfected cells, 20 μM Aβ1-42, 18 h): 110 % of that in Z-VAD-treated con; DNA fragmentation ([6]; apoE4-transfected cells, 20 μM Aβ1-42, 18 h): ~250 % of that in Z-VAD-treated con; Aβ-induced DNA fragmentation ([6]; neo-transfected cells in apoE3-conditioned medium, 20 μM Aβ1-42, 18 h): 202%; Aβ-induced DNA fragmentation ([6]; neo-transfected cells in apoE4-conditioned medium, 20 μM Aβ1-42, 18 h): 314%; Aβ-induced DNA fragmentation ([6]; neo-transfected cells in neo-conditioned medium, 20 μM Aβ1-42, 18 h): 232%; DNA fragmentation ([6]; neo-transfected cells, 20 μM Aβ1-42, 18 h): ~140 % of that in Z-VAD-treated con; increase of cytosolic β-hexosaminidase activity ([7]; apoE4-transfected cells): ~85%; increase of cytosolic β-hexosaminidase activity ([7]; neo-transfected cells): ~40%
								Z-VAD	DNA fragmentation, Z-VAD treatment alone ([6]; compared with untreated control cells): no effect; Aβ-induced DNA fragmentation ([6]; pretreatment with Z-VAD 100 μg/ml 2 h, all three cell lines): greatly reduced
								apoE4-Thr-61: Thr-61 mutant of apoE4, lacks intramolecular domain interaction	enhanced Aβ production ([5]; 7.5 μg/ml, 37° C., 24 h, compared with apoE3 or apoE4): abolished the enhanced Aβ production

Compound	E4 + cpd n = 3, % bound [1]	E4 + cpd n = 3, % free [1]	E4 control, % bound [1]	E4 control, % free [1]	E4 + cpd, % bound [1]	E4 + cpd, % free [1]	E3 + compound, % bound [4]	E3 + compound, % free [4]	further results
glycine cresol red [GIND29]	57%	43%	48%	52%	23% and 29%	77% and 71%	33%	67%	effect on apoE3 (Aβ production) [2]: no effect; apoE4 enhancement of Aβ production [3]: abolished completely

— patent US7964598B2 (The J. David Gladstone Institutes, priority 1995, dated 2011)
